The values that follow come from PubChem BioAssay (NCI).

Assay in all cases: NCI tumour cell line growth inhibition, 48 h
The subject of experiment [1] is MDA-MB-435.
Experiment [2] relates to SNB-75 CNS.
Experiment [3] has as its system DU-145 prostate.
Experiment [4] deals with A549 NSCLC.
The test system of experiment [5] is SK-MEL-28 melanoma.
For experiment [6], the system named is HT29 colon.
The subject of experiment [7] is LOX IMVI melanoma.
Experiment [8] relates to M14 melanoma.
Experiment [9] concerns T-47D breast.

Several values for one entry are separate records, joined by “and”; a condition that tells them apart may be missing. Identical values can stand only once.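 Where inhibition never reached the appropriate level, the endpoint shown equals the highest concentration tested. Otherwise, values were interpolated linearly from a five-concentration, 48-hour dose response in 96-well plates. At the GI50, growth is halved. TGI is the concentration that stops growth completely.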 Where only a bound is given, the exact number is not on record here.

`O=C1c2ccccc2NC(=S)[C@@H]2CCCN12`: the TGI in experiment [1], in experiment [2], in [3], in experiment [4], in experiment [5] and in [6] was above 100 µM in each case. Also, the TGI in [7], in experiment [8] and in experiment [9] was above 100 µM throughout.

Regarding `O=c1[nH]c(=O)n(C2CC(O)C(CO)O2)cc1OCc1ccccc1` (centres undefined), the TGI in [1], in [2], in [3], in [4], in experiment [5] and in [6] was above 100 µM throughout. Also, the TGI in experiment [7], in experiment [8] and in experiment [9] was above 100 µM throughout.

In the case of `C=C(CN(C)C)C(=O)c1ccccc1[N+](=O)[O-]`, the GI50 in [1] is 3.86 µM; in experiment [2], 15.8 µM; in experiment [3], 15 µM; in [4], 22.2 µM; in experiment [5], 18.8 µM; in experiment [6], 3.31 µM. The values for the GI50 in [7], in experiment [8] and in experiment [9] were 3.98 µM, 6.42 µM and 5.68 µM, respectively. The TGI in experiment [1] is 29.7 µM and 15.9 µM; in experiment [2], 66.3 µM and 44.4 µM; in [3], 52.3 µM and 28.2 µM; in experiment [4], > 70.5 µM and 41.1 µM; in experiment [5], 34.1 µM and 51.6 µM; in [6] it was 39.1 µM and 16.1 µM. For the same compound, the TGI in experiment [7] was 15 µM and 15.5 µM; in experiment [8] it was 29.6 µM; in experiment [9] it was 18.6 µM and 28.6 µM.

For the compound `CCOP(=O)(/C=C\n1ccc(N)nc1=O)OCC`, the TGI in experiment [1], in [2], in experiment [3], in experiment [4], in experiment [5] and in [6] was above 100 µM in each case. The TGI in [7], in experiment [8] and in [9] was above 100 µM throughout.

With `COc1ccc(NC(=S)NC(=O)c2ccc3c(c2)Sc2ccccc2O3)c([N+](=O)[O-])c1`, the TGI in [1] was above 100 µM; in experiment [2], 23.7 µM; in experiment [3], above 100 µM; in experiment [4], above 100 µM; in experiment [5], above 100 µM; in experiment [6] it was above 100 µM. Besides, the TGI in [7], in experiment [8] and in experiment [9] was above 100 µM in each case.

For the compound `COc1cc(NC(C)=O)ccc1C(=O)NN1C(=O)/C(=C/c2ccco2)N=C1c1ccccc1`, the TGI in experiment [1], in experiment [2], in [3], in experiment [4], in experiment [5] and in experiment [6] was above 50 µM in each case. In addition, the TGI in experiment [7], in experiment [8] and in [9] was above 50 µM in each case.

As to `COc1nc(C#CC(C)(C)C)nc(OC)n1`, the TGI in experiment [1] was 84.5 µM; in experiment [2] it was above 100 µM; in experiment [3], 68.3 µM; in experiment [4] it was above 100 µM; in experiment [5] it was above 100 µM; in experiment [6] it was above 100 µM. Moreover, the TGI in experiment [7] is 61.4 µM; in [8], above 100 µM; in [9], above 100 µM.

For the compound `Nc1nn2c(=O)c3ccccc3nc2s1`, the TGI in experiment [1], in experiment [2], in experiment [3], in [4], in experiment [5] and in experiment [6] was above 100 µM in each case. In addition, the TGI in [7] was 44.7 µM; in [8], 93.8 µM; in experiment [9], above 100 µM.

On to `CC(C)(C)c1cc(C(=O)/C=C/c2ccc3c(c2)OCO3)cc(C(C)(C)C)c1O`, for which the TGI in experiment [1] was 7.04 µM; in [2] it was 15.4 µM; in [3], above 58 µM; in experiment [4], above 86.6 µM; in experiment [5], above 100 µM; in [6], 28 µM. The TGI in [7] was above 55.8 µM; in experiment [8], 65.3 µM; in experiment [9], 23.8 µM.

For `O=c1cc(-c2ccccc2)oc2c(-c3cc(Cl)cc4c(=O)cc(-c5ccccc5)oc34)cc(Cl)cc12`, the TGI in experiment [1] was above 100 µM; in experiment [2], 94 µM; in [3], above 100 µM; in experiment [4] it was above 100 µM; in experiment [5] it was above 100 µM; in experiment [6], above 100 µM. Also, the TGI in [7] is above 100 µM; in [8], above 100 µM; in experiment [9], 75.6 µM.

On to `S=c1cc(-c2ccc3c(c2)OCO3)s[nH]1`, for which the TGI in experiment [1], in [2], in [3], in experiment [4], in [5] and in experiment [6] was above 100 µM each time. Besides, the TGI in [7], in experiment [8] and in experiment [9] was above 100 µM in each case.

As to `CC(=O)c1ccc2c(c1)CC1(C2)Cc2ccccc2C1=O` (centres undefined), the TGI in [1] was above 100 µM; in experiment [2], above 100 µM; in experiment [3] it was above 100 µM; in [4], above 100 µM; in [5] it was above 100 µM; in experiment [6] it was 43.8 µM. Further, the TGI in experiment [7], in [8] and in experiment [9] was above 100 µM throughout.

Take `[O-]/[N+](=C\c1ccccc1OC(=S)S)c1ccc(Cl)cc1`: the TGI in experiment [1] was 47.3 µM; in experiment [2], above 100 µM; in experiment [3] it was above 100 µM; in [4], above 100 µM; in [5], above 100 µM; in experiment [6], above 100 µM. Further, the TGI was 38.8 µM in [7], above 100 µM in experiment [8] and 88.2 µM in experiment [9].

With `CC(NC(=O)N(C)C)NC(=O)N(C)C`, the TGI in experiment [1], in experiment [2], in [3], in [4], in experiment [5] and in experiment [6] was above 10 µM throughout. Also, the TGI in experiment [7], in [8] and in experiment [9] was above 10 µM each time.

For the compound `CCOC(=O)c1cn2c(n1)sc1cc(Cl)cc(Cl)c12`, the TGI in [1], in experiment [2], in experiment [3], in experiment [4], in experiment [5] and in experiment [6] was above 100 µM throughout. Moreover, the TGI in experiment [7], in [8] and in experiment [9] was above 100 µM each time.

Take `Cc1ccc(/C=C2\Cc3c(C)cc(C)cc3C2=O)c(C(=O)O)c1`: the TGI in experiment [1] was 88.1 µM; in [2], above 100 µM; in [3], above 100 µM; in experiment [4] it was above 100 µM; in [5] it was above 100 µM; in experiment [6], above 100 µM. In addition, the TGI in experiment [7] is 48.9 µM; in experiment [8], above 100 µM; in experiment [9] it was above 100 µM.

`COC(=O)/C(C#N)=C(/NCCN)Nc1ccccc1`: the TGI in experiment [1], in [2], in experiment [3], in experiment [4], in experiment [5] and in [6] was above 100 µM each time. Moreover, the TGI in experiment [7], in experiment [8] and in [9] was above 100 µM each time.

For `N#Cc1nc(C2CCC2)oc1N`, the TGI in experiment [1], in experiment [2], in experiment [3], in experiment [4], in experiment [5] and in [6] was above 100 µM throughout. In addition, the TGI in experiment [7], in experiment [8] and in [9] was above 100 µM each time.

Consider `COc1ccc(-c2cc(-c3ccccc3)[nH]c(=S)c2C#N)cc1`, for which the TGI in [1] is 42.8 µM; in [2], 88.1 µM; in experiment [3], above 100 µM; in experiment [4] it was 37.9 µM; in experiment [5] it was 58.7 µM; in experiment [6] it was above 100 µM. Also, the TGI in experiment [7] is above 100 µM; in [8] it was 94 µM; in experiment [9] it was 94.3 µM.

Consider `N#Cc1nc(NC(=O)c2ccccc2C(=O)O)c(C#N)[nH]1`, for which the TGI in experiment [1], in experiment [2], in experiment [3], in experiment [4], in [5] and in experiment [6] was above 100 µM in each case. In addition, the TGI in experiment [7], in [8] and in [9] was above 100 µM in each case.

As for `COc1ccc(COCC[C@H](C)OC2OC(CO[Si](C)(C)C(C)(C)C)C(OC(=O)CCCN=[N+]=[N-])C(OC(=O)CCCN=[N+]=[N-])C2OC(=O)CCCN=[N+]=[N-])cc1` (some centres undefined), the TGI was above 100 µM in experiment [1]; 59.9 µM in experiment [2]; above 100 µM in experiment [3]; above 100 µM in experiment [4]; above 100 µM in experiment [5]; 62.7 µM in experiment [6]. In addition, the TGI in experiment [7], in [8] and in experiment [9] was above 100 µM throughout.

As for `C=C1C(O)CC[C@]2(C)C1C1OC(C)(C)O[C@]13CC(=O)C(C)=C([C@H]1OC(C)(C)OC12)C3(C)C` (some centres undefined), the TGI in [1], in [2], in experiment [3], in [4], in experiment [5] and in experiment [6] was above 100 µM throughout. The TGI in experiment [7] and in experiment [9] was above 100 µM throughout.

As for `CC(=O)OC1C(COC(=O)c2ccccc2)OC(Nc2ncc(-c3ccc(Br)cc3)s2)C(OC(=O)c2ccccc2)C1OC(=O)c1ccccc1` (centres undefined), the TGI in experiment [1], in [2], in [3], in experiment [4], in experiment [5] and in [6] was above 100 µM each time. Moreover, the TGI in experiment [7], in experiment [8] and in experiment [9] was above 100 µM in each case.

With `COC(=O)C1=Nc2c(C)nn(-c3ccccc3)c2N=C(c2ccccc2)C1`, the TGI in experiment [1], in [2], in experiment [3], in experiment [4], in [5] and in experiment [6] was above 10 µM in each case. The TGI in [7], in experiment [8] and in [9] was above 10 µM throughout.

As to `COc1cc2c(c(O)c1OC)C(=O)C(Cc1ccc(O)cc1)CO2` (centres undefined), the TGI was 7.24 µM in experiment [1]; 81.4 µM in experiment [2]; above 100 µM in experiment [3]; 60.7 µM in [4]; above 100 µM in experiment [5]; above 100 µM in experiment [6]. The TGI in experiment [7] is above 100 µM; in [8] it was 84 µM; in [9], 69.6 µM.

Turning to `O=[N+]([O-])c1ccc2c(c1)C1=NN(c3ccccc3)C(c3ccccc3Br)C1CCC2` (centres undefined), the TGI in [1], in experiment [2], in experiment [3], in experiment [4], in experiment [5] and in experiment [6] was above 50 µM each time. Moreover, the TGI in experiment [7] was above 50 µM; in experiment [8], above 50 µM; in experiment [9], 47.3 µM.

For `COc1cc(/C=C/C=C2\CC/C(=C\C=C\c3ccc(O)c(OC)c3)C2=O)ccc1O`, the TGI in experiment [1], in [2], in experiment [3], in [4], in experiment [5] and in [6] was above 100 µM each time. The TGI in experiment [7], in [8] and in experiment [9] was above 100 µM each time.

For `CC(C)OC(=O)OCSc1ccccc1N=Cc1cccc([N+](=O)[O-])c1`, the TGI in experiment [1], in [2], in [3], in experiment [4], in experiment [5] and in experiment [6] was above 10 µM throughout. Besides, the TGI in experiment [7], in [8] and in experiment [9] was above 10 µM in each case.

Take `CSc1n[nH]c(N)c1C(=O)Nc1ccccc1`: the TGI in experiment [1], in experiment [2], in [3], in experiment [4], in experiment [5] and in experiment [6] was above 100 µM throughout. Also, the TGI in experiment [7], in [8] and in experiment [9] was above 100 µM each time.
